How the values were obtained:
[1] = target: T1, E. coli pNAPT-7 cell lysate (Bacillus subtilis, UniProt Q59248); assay: hydrolysis of ester substrates by E. coli pNAPT-7 cell lysate (Example 13); assay type: biochemical, Bacillus subtilis Thai I-8; conditions: for enzyme activity on substrate: 25° C., 0.1 MOPS pH 7.5, 0.3 mg ester/ml, 2% Tween, 1 mg/ml BSA, 2 hours
T1 construct: ammonium sulphate-precipitated, ultrafiltered lysate; about 31 kDa, untagged wild type
Protocol: The E. coli pNAPT-7 cell lysate after ammonium sulphate precipitation and ultrafiltration was tested on the hydrolysis of the ethyl ester of R and S-ibuprofen.
The enzyme activity was assayed at 25° C. in 0.1 MOPS buffer pH 7.5 with 0.3 mg of R or S-ibuprofen ethyl ester/ml, 2% Tween and 1 mg/ml BSA. After 2 hours incubation the reaction was stopped by the addition of acetonitrile.
The reaction mixture was analyzed on a HPLC-reversed phase column (Chrompack Polygosil 60D-10CN, 250×4.6 mm), eluted with 34% acetonitrile, 0.05M phosphoric acid pH 3.0 at a flow rate of 1.5 ml/min. Retention times for R and S-ibuprofen and the ethyl ester of R and S-ibuprofen were 5.98 minutes and 11.08 minutes respectively.

[2] = S-enantiomer vs antipode; cited from earlier work

T1 sequence (Q59248 entry or part of it): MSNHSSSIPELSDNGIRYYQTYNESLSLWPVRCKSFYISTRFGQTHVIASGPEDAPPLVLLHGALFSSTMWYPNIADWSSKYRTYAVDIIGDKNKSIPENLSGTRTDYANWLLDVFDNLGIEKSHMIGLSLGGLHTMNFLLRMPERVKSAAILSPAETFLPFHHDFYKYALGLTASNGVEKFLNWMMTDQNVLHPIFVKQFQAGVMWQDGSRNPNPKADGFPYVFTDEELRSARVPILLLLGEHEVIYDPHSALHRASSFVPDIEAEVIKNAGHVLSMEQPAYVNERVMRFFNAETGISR

In the case of `CCOC(=O)[C@H](C)c1ccc(CC(C)C)cc1` [R-ibuprofen ethyl ester, ethyl 2-(4-isobutyl-1-phenyl) propionate], the “enzyme activity on substrate” value [1] is reported as 1865 u/l.
With `CCOC(=O)[C@@H](C)c1ccc(CC(C)C)cc1` [S-ibuprofen ethyl ester, ethyl 2-(4-isobutyl-1-phenyl) propionate] the “enzyme activity on substrate” value [1] was 39600 u/l, the S-specificity ([1]; Table 12, ibuprofen ethyl ester) was 95.3% and the “hydrolysis relative to the hydrolysing activity of the methyl ester of S-naproxen” value ([1]; tested under the same conditions) was 60%.
In the case of `COC(=O)[C@@H](C)c1ccc2cc(OC)ccc2c1` [S-naproxen methyl ester, methyl 2-(6-methoxy-2-naphthyl) propionate], the “enzyme activity on substrate” value [1] is reported as 65000 u/l.
For `CC(C)Cc1ccc([C@H](C)C(=O)O)cc1` [ibuprofen, 2-(4-isobutyl-1-phenyl) propionic acid], the “in vitro anti-inflammatory activity of the S-enantiomer relative to its antipode” value [2] is given as “up to 150 times”.
In the case of `COc1ccc2cc([C@H](C)C(=O)O)ccc2c1` [naproxen, 2-(6-methoxy-2-naphthyl) propionic acid], the “in vitro anti-inflammatory activity of the S-enantiomer relative to its antipode” value [2] is listed as “up to 150 times”.
